Data from ChEMBL document CHEMBL4257468, “Synthesis and biological evaluation of rapamycin-derived, next generation small molecules” (Medchemcomm, 2018).

Legend:
Saccharomyces cerevisiae = assay: Inhibition of FKBP12 in yeast assessed as reduction in cell proliferation
[1] = biological target: T1, Peptidyl-prolyl cis-trans isomerase FKBP1A (Homo sapiens, UniProt P62942); assay: Inhibition of recombinant human FKBP12 expressed in Escherichia coli using succinyl-Ala-Phe-Pro-Phe-4-nitroanilide as substrate measured after 5 to 10 mins by spectrophotometric method
[2] = Half life in human administered as oral dose; type: ADME, organism-based; conditions: in vivo
[3] = Apparent terminal half life in Sprague-Dawley rat at 2.5 mg/kg, iv administered as bolus dose by mass spectrometric analysis; type: ADME, organism-based; conditions: in vivo, read-out: betat1/2(app) (converted)
[4] = biological target: T1, Peptidyl-prolyl cis-trans isomerase FKBP1A; assay: Inhibition of [3H]-FK506 binding to recombinant human His6-tagged FKBP12 pretreated for 10 mins followed by [3H]-FK506 addition and measured after 1.5 hrs by microbeta scintillation counting method

T1 sequence (P62942 whole entry): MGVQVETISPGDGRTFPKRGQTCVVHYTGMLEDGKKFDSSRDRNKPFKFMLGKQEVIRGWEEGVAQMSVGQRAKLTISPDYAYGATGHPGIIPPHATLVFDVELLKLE

COc1ccc([C@@H]2C[C@@H]3CC[C@@H](C)[C@@](O)(O3)C(=O)C(=O)N3CCCC[C@H]3C(=O)O[C@H]([C@H](C)C[C@@H]3CC[C@@H](O)[C@H](OC)C3)CC(=O)[C@H](C)/C=C(\C)[C@@H](O)[C@@H](OC)C(=O)[C@H](C)C[C@H](C)/C=C/C=C/C=C/2C)c(OC)c1 showed an IC12 (Saccharomyces cerevisiae) of 400 nM and a Ki [1] of 38 nM.

COC(=O)N[C@@H]1C[C@@H]2CC[C@@H](C)[C@@](O)(O2)C(=O)C(=O)N2CCCC[C@H]2C(=O)O[C@H]([C@H](C)C[C@@H]2CC[C@@H](O)[C@H](OC)C2)CC(=O)[C@H](C)/C=C(\C)[C@@H](O)[C@@H](OC)C(=O)[C@H](C)C[C@H](C)/C=C/C=C/C=C/1C gave an IC12 (Saccharomyces cerevisiae) of 220 nM and a Ki [1] of 3.7 nM.

Compound CO[C@@H]1C[C@H](C[C@@H](C)[C@@H]2CC(=O)[C@H](C)/C=C(\C)[C@@H](O)[C@@H](OC)C(=O)[C@H](C)C[C@H](C)/C=C/C=C/C=C(\C)[C@H](c3ccc[nH]3)C[C@@H]3CC[C@@H](C)[C@@](O)(O3)C(=O)C(=O)N3CCCC[C@H]3C(=O)O2)CC[C@H]1O has an IC12 (Saccharomyces cerevisiae) of 28 nM and a Ki [1] of 1.5 nM.

CO[C@H]1C[C@@H]2CC[C@@H](C)[C@@](O)(O2)C(=O)C(=O)N2CCCC[C@H]2C(=O)O[C@H]([C@H](C)C[C@@H]2CC[C@@H](O)[C@H](OC)C2)CC(=O)[C@H](C)/C=C(\C)[C@@H](O)[C@@H](OC)C(=O)[C@H](C)C[C@H](C)/C=C/C=C/C=C/1C [SIROLIMUS] showed a half-life [2] of 62 to 82 h, an IC12 (Saccharomyces cerevisiae) of 7 nM and a half-life [3] of 14 h.

In the case of COC(=O)N[C@H]1C[C@@H]2CC[C@@H](C)[C@@](O)(O2)C(=O)C(=O)N2CCCC[C@H]2C(=O)O[C@H]([C@H](C)C[C@@H]2CC[C@@H](O)[C@H](OC)C2)CC(=O)[C@H](C)/C=C(\C)[C@@H](O)[C@@H](OC)C(=O)[C@H](C)C[C@H](C)/C=C/C=C/C=C/1C, the IC12 (Saccharomyces cerevisiae) is reported as 170 nM and the Ki [1] is reported as 4.5 nM.

With COc1ccc([C@H]2C[C@@H]3CC[C@@H](C)[C@@](O)(O3)C(=O)C(=O)N3CCCC[C@H]3C(=O)O[C@H]([C@H](C)C[C@@H]3CC[C@@H](O)[C@H](OC)C3)CC(=O)[C@H](C)/C=C(\C)[C@@H](O)[C@@H](OC)C(=O)[C@H](C)C[C@H](C)/C=C/C=C/C=C/2C)c(OC)c1 the IC12 (Saccharomyces cerevisiae) was 225 nM and the Ki [1] was 9 nM.

With CO[C@@H]1C[C@H](C[C@@H](C)[C@@H]2CC(=O)[C@H](C)/C=C(\C)[C@@H](O)[C@@H](OC)C(=O)[C@H](C)C[C@H](C)/C=C/C=C/C=C(\C)[C@@H](OCc3ccc(Cl)cc3)C[C@@H]3CC[C@@H](C)[C@@](O)(O3)C(=O)C(=O)N3CCCC[C@H]3C(=O)O2)CC[C@H]1O the IC12 (Saccharomyces cerevisiae) was 6 nM and the Ki [1] was 1 nM.

COc1cc(OC)c([C@@H]2C[C@@H]3CC[C@@H](C)[C@@](O)(O3)C(=O)C(=O)N3CCCC[C@H]3C(=O)O[C@H]([C@H](C)C[C@@H]3CC[C@@H](O)[C@H](OC)C3)CC(=O)[C@H](C)/C=C(\C)[C@@H](O)[C@@H](OC)C(=O)[C@H](C)C[C@H](C)/C=C/C=C/C=C/2C)c(OC)c1 gave an IC12 (Saccharomyces cerevisiae) of over 1000 nM and a Ki [1] of 7 nM.

Compound CO[C@@H]1C[C@H](C[C@@H](C)[C@@H]2CC(=O)[C@H](C)/C=C(\C)[C@@H](O)[C@@H](OC)C(=O)[C@H](C)C[C@H](C)/C=C/C=C/C=C(\C)[C@@H](OCc3cccc([N+](=O)[O-])c3)C[C@@H]3CC[C@@H](C)[C@@](O)(O3)C(=O)C(=O)N3CCCC[C@H]3C(=O)O2)CC[C@H]1O has an IC12 (Saccharomyces cerevisiae) of 20 nM and a Ki [1] of 7 nM.

CO[C@@H]1C[C@H](C[C@@H](C)[C@@H]2CC(=O)[C@H](C)/C=C(\C)[C@@H](O)[C@@H](OC)C(=O)[C@H](C)C[C@H](C)/C=C/C=C/C=C(\C)CC[C@@H]3CC[C@@H](C)[C@@](O)(O3)C(=O)C(=O)N3CCCC[C@H]3C(=O)O2)CC[C@H]1O gave an IC12 (Saccharomyces cerevisiae) of 8 nM.

Work on CO[C@@H]1C[C@@H]2CC[C@@H](C)[C@@](O)(O2)C(=O)C(=O)N2CCCC[C@H]2C(=O)O[C@H]([C@H](C)C[C@@H]2CC[C@@H](O)[C@H](OC)C2)CC(=O)[C@H](C)/C=C(\C)[C@@H](O)[C@@H](OC)C(=O)[C@H](C)C[C@H](C)/C=C/C=C/C=C/1C yielded an IC12 (Saccharomyces cerevisiae) of 20 nM.

In the case of CCO[C@H]1C[C@@H]2CC[C@@H](C)[C@@](O)(O2)C(=O)C(=O)N2CCCC[C@H]2C(=O)O[C@H]([C@H](C)C[C@@H]2CC[C@@H](O)[C@H](OC)C2)CC(=O)[C@H](C)/C=C(\C)[C@@H](O)[C@@H](OC)C(=O)[C@H](C)C[C@H](C)/C=C/C=C/C=C/1C, the IC12 (Saccharomyces cerevisiae) is reported as 10 nM and the Ki [1] is reported as 3.5 nM.

With CO[C@@H]1C[C@H](C[C@@H](C)[C@@H]2CC(=O)[C@H](C)/C=C(\C)[C@@H](O)[C@@H](OC)C(=O)[C@H](C)C[C@H](C)/C=C/C=C/C=C(\C)[C@@H](OCc3ccccc3)C[C@@H]3CC[C@@H](C)[C@@](O)(O3)C(=O)C(=O)N3CCCC[C@H]3C(=O)O2)CC[C@H]1O the IC12 (Saccharomyces cerevisiae) was 6 nM and the Ki [1] was 5 nM.

For CO[C@@H]1C[C@H](C[C@@H](C)[C@@H]2CC(=O)[C@H](C)/C=C(\C)[C@@H](O)[C@@H](OC)C(=O)[C@H](C)C[C@H](C)/C=C/C=C/C=C(\C)[C@@H](c3ccco3)C[C@@H]3CC[C@@H](C)[C@@](O)(O3)C(=O)C(=O)N3CCCC[C@H]3C(=O)O2)CC[C@H]1O, the IC12 (Saccharomyces cerevisiae) was 12.5 nM and the Ki [1] was 3 nM.

Compound CO[C@H]1C[C@@H]2CC[C@@H](C)[C@@](O)(O2)C(=O)C(=O)N2CCCC[C@H]2C(=O)O[C@H]([C@H](C)C[C@@H]2CC[C@H](n3cnnn3)[C@H](OC)C2)CC(=O)[C@H](C)/C=C(\C)[C@@H](O)[C@@H](OC)C(=O)[C@H](C)C[C@H](C)/C=C/C=C/C=C/1C [ZOTAROLIMUS] has a half-life [3] of 9.4 h.

Work on CO[C@@H]1C[C@H](C[C@@H](C)[C@@H]2CC(=O)[C@H](C)/C=C(\C)[C@@H](O)[C@@H](OC)C(=O)[C@H](C)C[C@H](C)/C=C/C=C/C=C(\C)[C@@H](c3ccc[nH]3)C[C@@H]3CC[C@@H](C)[C@@](O)(O3)C(=O)C(=O)N3CCCC[C@H]3C(=O)O2)CC[C@H]1O yielded an IC12 (Saccharomyces cerevisiae) of 28 nM and a Ki [1] of 10 nM.

With CO[C@@H]1C[C@H](C[C@@H](C)[C@@H]2CC(=O)[C@H](C)/C=C(\C)[C@@H](O)[C@@H](OC)C(=O)[C@H](C)C[C@H](C)/C=C/C=C/C=C(\C)[C@H](SC)C[C@@H]3CC[C@@H](C)[C@@](O)(O3)C(=O)C(=O)N3CCCC[C@H]3C(=O)O2)CC[C@H]1O the IC12 (Saccharomyces cerevisiae) was 4 nM.

With CO[C@@H]1C[C@H](C[C@@H](C)[C@@H]2CC(=O)[C@H](C)/C=C(\C)[C@@H](O)[C@@H](OC)C(=O)[C@H](C)C[C@H](C)/C=C/C=C/C=C(\C)C(=O)C[C@@H]3CC[C@@H](C)[C@@](O)(O3)C(=O)C(=O)N3CCCC[C@H]3C(=O)O2)CC[C@H]1O the IC12 (Saccharomyces cerevisiae) was 210 nM and the Ki [1] was 29 nM.

With CO[C@@H]1C[C@H](C[C@@H](C)[C@@H]2CC(=O)[C@H](C)/C=C(\C)[C@@H](O)[C@@H](OC)C(=O)[C@H](C)C[C@H](C)/C=C/C=C/C=C(\C)[C@H](c3ccco3)C[C@@H]3CC[C@@H](C)[C@@](O)(O3)C(=O)C(=O)N3CCCC[C@H]3C(=O)O2)CC[C@H]1O the IC12 (Saccharomyces cerevisiae) was 3 nM and the Ki [1] was 6 nM.

With CO[C@H]1C[C@@H]2CC[C@@H](C)[C@@](O)(O2)C(=O)C(=O)N2CCSC[C@H]2C(=O)O[C@H]([C@H](C)C[C@@H]2CC[C@@H](O)[C@H](OC)C2)CC(=O)[C@H](C)/C=C(\C)[C@@H](O)[C@@H](OC)C(=O)[C@H](C)C[C@H](C)/C=C/C=C/C=C/1C the IC50 [4] was 53.6 nM.

Work on CO[C@@H]1C[C@H](C[C@@H](C)[C@@H]2CC(=O)[C@H](C)/C=C(\C)[C@@H](O)[C@@H](OC)C(=O)[C@H](C)C[C@H](C)/C=C/C=C/C=C(\C)[C@@H](SC)C[C@@H]3CC[C@@H](C)[C@@](O)(O3)C(=O)C(=O)N3CCCC[C@H]3C(=O)O2)CC[C@H]1O yielded an IC12 (Saccharomyces cerevisiae) of 4 nM.
